Inconclusive results and toxic doses are left out.

T/C data for 19 compounds are collected here from PubChem BioAssay AID274 (DTP/NCI, 2004).

This test relates to BDF1 mice, Lewis lung carcinoma iv, survival T/C. In words: NCI In Vivo Anticancer Drug Screen. Data for tumor model Lewis Lung Carcinoma (intravenous) in B6D2F1 (BDF1) mice. Particulars: endpoint: median survival time, higher = longer survival. As for the experimental part:
The antitumor activity of compounds was measured in mice bearing transplantable tumors. Survival or tumor size were measured and the results are expressed as the measurement made in the treated group (T) divided by the measurement made in the vehicle treated control group (C). The tumor model used in this assay is Lewis Lung Carcinoma (intravenous) in B6D2F1 (BDF1) mice

The mark [1] stands for this setting: dose: 100.0 mg/kg/injection, schedule: Q01DX009 (ip), vehicle: saline with Tween-80.
Where [2] appears, read: dose: 200.0 mg/kg/injection, schedule: Q01DX009 (ip), vehicle: saline with Tween-80.
The mark [3] stands for this setting: dose: 400.0 mg/kg/injection, schedule: Q01DX009 (ip), vehicle: saline with Tween-80.
[4] abbreviates: dose: 50.0 mg/kg/injection, schedule: Q01DX009 (ip), vehicle: saline with Tween-80.
Setting [5] is: dose: 12.5 mg/kg/injection, schedule: Q01DX009 (ip), vehicle: saline with Tween-80.
Setting [6] is: dose: 25.0 mg/kg/injection, schedule: Q01DX009 (ip), vehicle: saline with Tween-80.
[7] abbreviates: dose: 12.5 mg/kg/injection, schedule: Q01DX009 (ip), vehicle: saline.
Where [8] appears, read: dose: 25.0 mg/kg/injection, schedule: Q01DX009 (ip), vehicle: saline.
[9] abbreviates: dose: 50.0 mg/kg/injection, schedule: Q01DX009 (ip), vehicle: saline.

Take `O=C(O)c1ccc(C(=O)O)c(C(=O)O)c1.[NH-]C1CCCCC1[NH-].[Pt+2]`: the T/C (dose: 0.39 mg/kg/injection, schedule: Q01DX009 (ip), vehicle: sodium bicarbonate) is 90 % of control; the T/C (dose: 0.78 mg/kg/injection, schedule: Q01DX009 (ip), vehicle: sodium bicarbonate) is 100 % of control; the T/C (dose: 1.56 mg/kg/injection, schedule: Q01DX009 (ip), vehicle: sodium bicarbonate) was 112 % of control; the T/C (dose: 3.12 mg/kg/injection, schedule: Q01DX009 (ip), vehicle: sodium bicarbonate) was 122 % of control.

As for `C=CC(C)NC(=S)NNC(=S)NC` (stereo not given), the T/C is 119 % of control (dose: 25.0 mg/kg/injection, schedule: Q01DX009 (ip), vehicle: saline + alcohol); 110 % of control (dose: 50.0 mg/kg/injection, schedule: Q01DX009 (ip), vehicle: saline + alcohol); 107 % of control (dose: 100.0 mg/kg/injection, schedule: Q01DX009 (ip), vehicle: saline + alcohol); 104 % of control (dose: 200.0 mg/kg/injection, schedule: Q01DX009 (ip), vehicle: saline + alcohol); 114 % of control (dose: 400.0 mg/kg/injection, schedule: Q01DX009 (ip), vehicle: saline + alcohol).

In the case of `CC[C@]1(O)C[C@H]2CN(CCc3c([nH]c4ccccc34)[C@@](C(=O)OC)(c3cc4c(cc3OC)N(C=O)[C@H]3[C@@](O)(C(=O)OC)[C@H](OC(C)=O)[C@]5(CC)C=CCN6CC[C@]43[C@@H]65)C2)C1`, the T/C (dose: 0.36 mg/kg/injection, schedule: Q04DX003 (ip), vehicle: saline) is 98 % of control; the T/C (dose: 0.6 mg/kg/injection, schedule: Q04DX003 (ip), vehicle: saline) was 105 % of control; the T/C (dose: 1.0 mg/kg/injection, schedule: Q04DX003 (ip), vehicle: saline) was 120 % of control; the T/C (dose: 130.0 micrograms/kg/injection, schedule: Q01DX009 (ip), vehicle: saline) is 106 % of control; the T/C (dose: 216.0 micrograms/kg/injection, schedule: Q01DX009 (ip), vehicle: saline) is 111 % of control.

With `Nc1cc(=O)[nH][nH]1`, the T/C is, setting by setting: under setting [1], 99 % of control; under setting [2], 91 % of control; under setting [3], 95 % of control.

Regarding `Nc1nc(N)c(N=O)c(Nc2ccc(I)cc2)n1`, the T/C is 97 % of control under setting [4], 95 % of control under setting [1] and 95 % of control under setting [2].

Take `O=[N+]([O-])c1cc([N+](=O)[O-])c(Nn2c3ccccc3c3ccccc32)c([N+](=O)[O-])c1`: the T/C runs as follows: under setting [5], 114 % of control; under setting [6], 105 % of control; under setting [4], 91 % of control.

In the case of `COc1cc2c(c(OC)c1OC)-c1ccc(OC)c(=O)cc1[C@@H](NC(C)=O)CC2`, the T/C is 102 % of control (dose: 0.19 mg/kg/injection, schedule: Q01DX009 (ip), vehicle: saline) and 109 % of control (dose: 0.38 mg/kg/injection, schedule: Q01DX009 (ip), vehicle: saline).

In the case of `O=CN(SSN(C=O)C1CCCCC1)C1CCCCC1`, the T/C by setting is: under setting [5], 114 % of control; under setting [6], 108 % of control; under setting [4], 99 % of control; under setting [1], 95 % of control; under setting [2], 101 % of control; under setting [3], 87 % of control.

Regarding `CC(C)NNC(=O)c1ccncc1`, the T/C (dose: 19.4 mg/kg/injection, schedule: Q01DX007 (ip), vehicle: Klucel (hydroxypropylcellulose) (HPC)) was 95 % of control; the T/C (dose: 32.4 mg/kg/injection, schedule: Q01DX007 (ip), vehicle: Klucel (hydroxypropylcellulose) (HPC)) is 91 % of control; the T/C (dose: 54.0 mg/kg/injection, schedule: Q01DX007 (ip), vehicle: Klucel (hydroxypropylcellulose) (HPC)) is 95 % of control; the T/C (dose: 90.0 mg/kg/injection, schedule: Q01DX007 (ip), vehicle: Klucel (hydroxypropylcellulose) (HPC)) was 96 % of control; the T/C (dose: 150.0 mg/kg/injection, schedule: Q01DX007 (ip), vehicle: Klucel (hydroxypropylcellulose) (HPC)) was 91 % of control.

As to `COc1ccc(C(=O)c2no[n+]([O-])c2C(=O)c2ccc(OC)cc2)cc1`, the T/C is 104 % of control under setting [5]; 102 % of control under setting [6]; 95 % of control under setting [4]; 98 % of control under setting [1]; 100 % of control under setting [2]; 111 % of control under setting [3].

Take `CC(Oc1ccccc1-c1ccccc1)C(=O)N(C)C` (stereo not given): the T/C is, setting by setting: under setting [5], 118 % of control; under setting [6], 95 % of control; under setting [4], 113 % of control; under setting [1], 93 % of control; under setting [2], 113 % of control; under setting [3], 114 % of control.

Consider `COc1ccc(C(N)=O)cc1N=NN(C)C`, for which the T/C runs as follows: (dose: 3.12 mg/kg/injection, schedule: Q01DX009 (ip), vehicle: Klucel (hydroxypropylcellulose) (HPC)) 95 % of control; (dose: 6.25 mg/kg/injection, schedule: Q01DX009 (ip), vehicle: Klucel (hydroxypropylcellulose) (HPC)) 98 % of control; (dose: 12.5 mg/kg/injection, schedule: Q01DX009 (ip), vehicle: Klucel (hydroxypropylcellulose) (HPC)) 118 % of control; (dose: 25.0 mg/kg/injection, schedule: Q01DX009 (ip), vehicle: Klucel (hydroxypropylcellulose) (HPC)) 110 % of control.

Regarding `C=CCNc1ccc(C)cc1`, the T/C (dose: 100.0 mg/kg/injection, schedule: Q01DX009 (ip), vehicle: Klucel (hydroxypropylcellulose) (HPC)) was 86 % of control.

On to `COC1NC(=O)NC(=O)C1=[N+]=[N-]` (stereo not given), for which the T/C is, setting by setting: (dose: 2.0 mg/kg/injection, schedule: Q01DX009 (ip), vehicle: water) 96 % of control; (dose: 4.0 mg/kg/injection, schedule: Q01DX009 (ip), vehicle: water) 98 % of control; (dose: 8.0 mg/kg/injection, schedule: Q01DX009 (ip), vehicle: water) 100 % of control.

In the case of `COc1cc2cc3cc4cc(OC)c(OC)cc4c(C)[n+]3cc2cc1OC` (tested in a mixture with another compound), the T/C (dose: 6.25 mg/kg/injection, schedule: Q01DX009 (ip), vehicle: saline) was 104 % of control; the T/C under setting [7] was 106 % of control; the T/C under setting [8] was 107 % of control; the T/C under setting [9] is 111 % of control.

With `C1OC1CO[C@@H]1CO[C@H]2[C@@H]1OC[C@H]2OCC1CO1` (stereo not given in full), the T/C is 113 % of control under setting [7]; 100 % of control under setting [8]; 123 % of control under setting [9]; 177 % of control (dose: 100.0 mg/kg/injection, schedule: Q01DX009 (ip), vehicle: saline).

For the compound `CCCCOCN(COCCCC)C(C)Cc1ccccc1` (stereo not given), the T/C under setting [5] is 102 % of control; the T/C under setting [6] was 96 % of control; the T/C under setting [4] was 95 % of control; the T/C under setting [1] is 100 % of control; the T/C under setting [2] was 101 % of control.

`Cc1ccc(Cl)c2ccccc12`: the T/C is 98 % of control under setting [4], 98 % of control under setting [1] and 107 % of control under setting [2].

Turning to `CCCCCCCCCCCCN1C(C)=CS/C1=C\C=C\c1scc(C)[n+]1CCCCCCCCCCCC`, the T/C was 95 % of control (dose: 0.78 mg/kg/injection, schedule: Q01DX009 (ip), vehicle: saline with Tween-80); 98 % of control (dose: 1.56 mg/kg/injection, schedule: Q01DX009 (ip), vehicle: saline with Tween-80); 91 % of control (dose: 3.12 mg/kg/injection, schedule: Q01DX009 (ip), vehicle: saline with Tween-80).
